EC50 data for 15 molecules are collected here from patent publication US20240336608A1, “IL4I1 INHIBITORS AND METHODS OF USE” (Merck Sharp & Dohme LLC, priority 2023, published 2024).

A word on the EC50: it is the midpoint of the concentration-response curve.

The experiment deals with T1, recombinant IL4I1 (Homo sapiens, UniProt Q96RQ9).
T1 construct: purchased R&D Systems 5684-AO-020
T1 sequence (Q96RQ9 22-567): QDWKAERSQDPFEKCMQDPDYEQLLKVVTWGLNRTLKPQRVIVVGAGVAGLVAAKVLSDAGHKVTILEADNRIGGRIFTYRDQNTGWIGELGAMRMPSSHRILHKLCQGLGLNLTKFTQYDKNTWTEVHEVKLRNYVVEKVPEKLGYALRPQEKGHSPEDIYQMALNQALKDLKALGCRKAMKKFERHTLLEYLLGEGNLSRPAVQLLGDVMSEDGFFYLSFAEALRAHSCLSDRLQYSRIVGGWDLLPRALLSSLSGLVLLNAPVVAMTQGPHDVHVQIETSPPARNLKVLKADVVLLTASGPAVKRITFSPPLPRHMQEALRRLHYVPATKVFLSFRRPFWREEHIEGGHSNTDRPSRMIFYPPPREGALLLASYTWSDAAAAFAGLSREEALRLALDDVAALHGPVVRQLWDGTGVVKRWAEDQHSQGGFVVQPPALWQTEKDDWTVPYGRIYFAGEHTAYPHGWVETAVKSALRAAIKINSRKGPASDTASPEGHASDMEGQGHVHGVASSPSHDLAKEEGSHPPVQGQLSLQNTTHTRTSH
The experiment can be described thus: IL4I1 Enzymatic Assay (Amplex Red/HRP coupled detection of H2O2, fluorescence). Type of experiment: biochemical. The note with it: 1 nM recombinant IL4I1; four-hour pre-incubation with compound; 1 mM each Phe, Tyr, Trp; ten-point titration. The gist of the method:
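Recombinant IL4I1 (1 nM final) pre-incubated 4 h at ambient temperature with compound (0.5% DMSO) in 50 mM Hepes pH 7.0, 0.005% Tween20; reaction started with 1 mM each Phe/Tyr/Trp plus excess Amplex Red/HRP, run 120 min. H2O2 read as resorufin fluorescence; EC50 from 10-point four-parameter fit.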

As for `O=C(NCc1nnc(-c2ccccc2)s1)c1cn(CC(F)(F)C(=O)O)nn1` [Example 331, 2,2-difluoro-3-(4-(((5-phenyl-1,3,4-thiadiazol-2-yl)methyl)carbamoyl)-1H-1,2,3-triazol-1-yl)propanoic acid], the EC50 worked out at 382 nM. Take `NC(=O)C(F)(F)Cn1cc(C(=O)NCc2nnc(-c3ccccc3)s2)nn1` [Example 332, 1-(3-amino-2,2-difluoro-3-oxopropyl)-N-((5-phenyl-1,3,4-thiadiazol-2-yl)methyl)-1H-1,2,3-triazole-4-carboxamide]: the EC50 was determined as 8 nM. The value for `Cc1nc(C(N)=O)ccc1-n1cc(C(=O)NCc2nnc(-c3ccccc3)s2)nn1` [Example 333, 6-methyl-5-(4-(((5-phenyl-1,3,4-thiadiazol-2-yl)methyl)carbamoyl)-1H-1,2,3-triazol-1-yl)picolinamide] was 6 nM. The value for `Cc1nc(C(C)(C)O)ccc1-n1cc(C(=O)NCc2nnc(-c3ccccc3)s2)nn1` [Example 334, 1-(6-(2-hydroxypropan-2-yl)-2-methylpyridin-3-yl)-N-((5-phenyl-1,3,4-thiadiazol-2-yl)methyl)-1H-1,2,3-triazole-4-carboxamide] was 446 nM; that for `Cc1nc(C#N)ccc1-n1cc(C(=O)NCc2nnc(-c3ccccc3)s2)nn1` [Example 335, 1-(6-cyano-2-methylpyridin-3-yl)-N-((5-phenyl-1,3,4-thiadiazol-2-yl)methyl)-1H-1,2,3-triazole-4-carboxamide] was 10 nM. As for `CCc1ccc(-n2cc(C(=O)NCc3nnc(-c4ccccc4)s3)nn2)c(C)n1` [Example 336, 1-(6-ethyl-2-methylpyridin-3-yl)-N-((5-phenyl-1,3,4-thiadiazol-2-yl)methyl)-1H-1,2,3-triazole-4-carboxamide], the concentration for a half-maximal effect (EC50) came to 9 nM. For `Cc1ccc(-n2cc(C(=O)NCc3nnc(-c4ccccc4)s3)nn2)c(C#N)n1` [Example 337, 1-(2-cyano-6-methylpyridin-3-yl)-N-((5-phenyl-1,3,4-thiadiazol-2-yl)methyl)-1H-1,2,3-triazole-4-carboxamide] the value was 53 nM; for `Cc1ccc(-n2cc(C(=O)NCc3nnc(-c4ccccc4)s3)nn2)c(C(C)(C)O)n1` [Example 338, 1-(2-(2-hydroxypropan-2-yl)-6-methylpyridin-3-yl)-N-((5-phenyl-1,3,4-thiadiazol-2-yl)methyl)-1H-1,2,3-triazole-4-carboxamide], 24 nM; for `Cc1ccc(-n2cc(C(=O)NCc3nnc(-c4ccccc4)s3)nn2)c(=O)[nH]1` [Example 339, 1-(6-methyl-2-oxo-1,2-dihydropyridin-3-yl)-N-((5-phenyl-1,3,4-thiadiazol-2-yl)methyl)-1H-1,2,3-triazole-4-carboxamide], 174 nM. As for `Cc1ccc(-n2cc(C(=O)NCc3nnc(-c4ccccc4)s3)nn2)c(N)n1` [Example 340, 1-(2-amino-6-methylpyridin-3-yl)-N-((5-phenyl-1,3,4-thiadiazol-2-yl)methyl)-1H-1,2,3-triazole-4-carboxamide], the EC50 amounted to 36 nM. In the case of `Cc1nc(S(C)(=O)=O)ccc1-n1cc(C(=O)NCc2nnc(-c3ccccc3)s2)nn1` [Example 341, 1-(2-methyl-6-(methylsulfonyl)pyridin-3-yl)-N-((5-phenyl-1,3,4-thiadiazol-2-yl)methyl)-1H-1,2,3-triazole-4-carboxamide], the EC50 stood at 271 nM. On to `Cc1nc(N)ccc1-n1cc(C(=O)NCc2nnc(-c3ccccc3)s2)nn1` [Example 342, 1-(6-amino-2-methylpyridin-3-yl)-N-((5-phenyl-1,3,4-thiadiazol-2-yl)methyl)-1H-1,2,3-triazole-4-carboxamide], for which the 50% effective concentration (EC50) was determined as 5 nM. For `O=C(NCc1nnc(-c2ccccc2)s1)c1cn(CC2(CO)CC2)nn1` [Example 343, 1-((1-(hydroxymethyl)cyclopropyl)methyl)-N-((5-phenyl-1,3,4-thiadiazol-2-yl)methyl)-1H-1,2,3-triazole-4-carboxamide] the value was 92 nM; for `Cc1n[nH]c(C)c1-n1cc(C(=O)NCc2nnc(-c3ccccc3)s2)nn1` [Example 346, 1-(3,5-dimethyl-1H-pyrazol-4-yl)-N-((5-phenyl-1,3,4-thiadiazol-2-yl)methyl)-1H-1,2,3-triazole-4-carboxamide], 108 nM. As for `O=C(NCc1nnc(-c2ccncc2)s1)c1cn(CC(F)F)nn1` [Example 347, 1-(2,2-difluoroethyl)-N-((5-(pyridin-4-yl)-1,3,4-thiadiazol-2-yl)methyl)-1H-1,2,3-triazole-4-carboxamide], the concentration giving a half-maximal response (EC50) worked out at 7 nM.
